Assay results published in US12371428B2 (Exelixis, Inc., priority 2019, dated 2025).

Tests used:
[1] = biological target: Human KDR (residues 790-1356) (Homo sapiens (Human), UniProt P35968); assay: Human KDR kinase assay, HTRF KinEase (Example B-2); format: biochemical; conditions: protocol of Example B-2 (other compounds)
How it was run: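 Ten compound concentrations (3% DMSO final) were pre-plated, then KDR (790-1356) with biotinylated peptide in Mg/Mn/DTT buffer was added; ATP at Km (4.0 μM) started a 40 min room-temperature reaction. Detection used Eu-TK antibody and SA-XL665 in EDTA buffer; activity normalized to DMSO and reference inhibitor, IC50 by logistic fit.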

[2] = biological target: Mer (phospho-Mer, MERTK-transfected 293A cells) (Homo sapiens (Human), UniProt Q12866); assay: Mer autophosphorylation ELISA in transient transfected 293A cells (Example H); format: cell-based; conditions: cellular activity; Mer autophosphorylation ELISA in transient transfected 293A cells
Mer (phospho-Mer, MERTK-transfected 293A cells), sequence (Q12866 21-999): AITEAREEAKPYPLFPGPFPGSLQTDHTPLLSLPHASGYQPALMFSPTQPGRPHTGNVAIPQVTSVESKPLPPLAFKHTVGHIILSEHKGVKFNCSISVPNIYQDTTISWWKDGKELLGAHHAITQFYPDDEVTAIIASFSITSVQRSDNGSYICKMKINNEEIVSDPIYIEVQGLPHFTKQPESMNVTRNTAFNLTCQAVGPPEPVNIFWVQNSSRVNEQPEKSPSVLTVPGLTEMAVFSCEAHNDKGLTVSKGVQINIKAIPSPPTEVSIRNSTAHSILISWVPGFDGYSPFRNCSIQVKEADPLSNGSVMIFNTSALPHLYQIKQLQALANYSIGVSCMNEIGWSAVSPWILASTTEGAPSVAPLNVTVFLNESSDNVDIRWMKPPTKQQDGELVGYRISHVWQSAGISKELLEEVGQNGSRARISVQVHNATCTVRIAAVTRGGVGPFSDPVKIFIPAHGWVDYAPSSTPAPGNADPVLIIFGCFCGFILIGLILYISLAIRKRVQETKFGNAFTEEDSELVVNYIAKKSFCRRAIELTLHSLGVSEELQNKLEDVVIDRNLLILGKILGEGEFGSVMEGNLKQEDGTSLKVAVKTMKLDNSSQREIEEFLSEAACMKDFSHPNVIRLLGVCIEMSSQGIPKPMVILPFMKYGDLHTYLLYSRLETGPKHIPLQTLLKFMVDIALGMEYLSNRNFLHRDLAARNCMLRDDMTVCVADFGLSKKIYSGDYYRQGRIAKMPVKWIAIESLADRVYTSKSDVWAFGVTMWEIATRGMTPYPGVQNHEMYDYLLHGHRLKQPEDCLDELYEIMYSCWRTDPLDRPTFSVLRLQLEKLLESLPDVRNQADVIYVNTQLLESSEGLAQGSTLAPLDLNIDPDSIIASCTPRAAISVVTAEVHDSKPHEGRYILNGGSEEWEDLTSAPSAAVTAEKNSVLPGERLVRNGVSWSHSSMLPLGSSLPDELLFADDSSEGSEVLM
How it was run: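 IC50 from phospho-Mer ELISA of MERTK-transfected 293A cell lysates after 1 h treatment with serially diluted compound in serum-free medium.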

Human KDR (residues 790-1356), sequence (P35968 790-1356): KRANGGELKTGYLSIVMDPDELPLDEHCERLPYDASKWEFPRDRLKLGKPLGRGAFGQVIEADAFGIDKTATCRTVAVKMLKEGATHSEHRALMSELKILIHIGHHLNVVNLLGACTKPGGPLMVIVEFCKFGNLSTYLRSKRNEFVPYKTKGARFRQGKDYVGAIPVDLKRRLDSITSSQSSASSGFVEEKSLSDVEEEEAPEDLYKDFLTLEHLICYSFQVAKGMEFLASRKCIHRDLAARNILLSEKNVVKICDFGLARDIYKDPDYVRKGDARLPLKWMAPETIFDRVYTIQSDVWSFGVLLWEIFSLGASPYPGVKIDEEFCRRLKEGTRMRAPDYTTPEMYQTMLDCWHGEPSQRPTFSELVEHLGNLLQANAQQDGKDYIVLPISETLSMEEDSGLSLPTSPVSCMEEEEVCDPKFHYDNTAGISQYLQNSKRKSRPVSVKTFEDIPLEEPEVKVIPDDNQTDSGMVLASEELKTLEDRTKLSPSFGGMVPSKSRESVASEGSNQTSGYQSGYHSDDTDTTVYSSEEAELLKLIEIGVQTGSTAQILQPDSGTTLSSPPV

SMILES | IC50 [1] | IC50 [2]
Cc1ccc(C(=O)Nc2ccc(Oc3ccnc4ccc(OCCN5CCOCC5)nc34)c(F)c2)c(=O)n1-c1ccc(F)cc1 [Compound 351, N-[3-fluoro-4-[[6-(2-morpholin-4-ylethoxy)-1,5-naphthyridin-4-yl]oxy]phenyl]-1-(4-fluorophenyl)-6-methyl-2-oxopyridine-3-carboxamide] | > 300 nM | < 100 nM
CCn1cc(C(=O)Nc2ccc(Oc3ccnc4cc(OC)cnc34)cc2)c(=O)c(-c2ccc(F)cc2)c1CO [Compound 274, 1-Ethyl-5-(4-fluorophenyl)-6-(hydroxymethyl)-N-[4-[(7-methoxy-1,5-naphthyridin-4-yl)oxy]phenyl]-4-oxopyridine-3-carboxamide] | > 300 nM | < 100 nM
COc1ccc2nccc(Oc3ccc(NC(=O)c4nccn(-c5ccc(F)cc5)c4=O)cc3F)c2n1 [Compound 380, N-[3-fluoro-4-[(6-methoxy-1,5-naphthyridin-4-yl)oxy]phenyl]-4-(4-fluorophenyl)-3-oxopyrazine-2-carboxamide] | > 300 nM | < 100 nM
COc1cc2nccc(Oc3ccc(NC(=O)C4=C5CCCN5CC(c5ccc(F)cc5)C4=O)cc3F)c2nc1OC (single isomer, unassigned; enantiomer 1) [Compound 374, N-[4-[(6,7-dimethoxy-1,5-naphthyridin-4-yl)oxy]-3-fluorophenyl]-6-(4-fluorophenyl)-7-oxo-2,3,5,6-tetrahydro-1H-indolizine-8-carboxamide, enantiomer 1] | > 300 nM | < 100 nM
COc1cnc2c(Oc3ccc(NC(=O)c4nccn(-c5ccc(F)cc5)c4=O)cc3)ccnc2c1 [Compound 382, 4-(4-fluorophenyl)-N-[4-[(7-methoxy-1,5-naphthyridin-4-yl)oxy]phenyl]-3-oxopyrazine-2-carboxamide] | > 300 nM | < 100 nM
COc1ccc2nccc(Oc3ccc(NC(=O)c4cn(C(C)C)c(C)c(-c5ccc(F)cc5)c4=O)cc3)c2n1 [Compound 341, 5-(4-fluorophenyl)-N-[4-[(6-methoxy-1,5-naphthyridin-4-yl)oxy]phenyl]-6-methyl-4-oxo-1-propan-2-ylpyridine-3-carboxamide] | > 300 nM | < 100 nM
COCc1c(-c2ccc(F)cc2)c(=O)c(C(=O)Nc2ccc(Oc3ccnc4cc(OC)c(OC)nc34)c(F)c2)cn1C [Compound 269, N-[4-[(6,7-Dimethoxy-1,5-naphthyridin-4-yl)oxy]-3-fluorophenyl]-5-(4-fluorophenyl)-6-(methoxymethyl)-1-methyl-4-oxopyridine-3-carboxamide] | > 300 nM | < 100 nM
COc1cnc2c(Oc3ccc(NC(=O)c4nccn(-c5ccc(F)cc5)c4=O)cc3F)ccnc2c1 [Compound 381, N-[3-fluoro-4-[(7-methoxy-1,5-naphthyridin-4-yl)oxy]phenyl]-4-(4-fluorophenyl)-3-oxopyrazine-2-carboxamide] | > 300 nM | < 100 nM
Cc1ccc(C(=O)Nc2ccc(Oc3ccnc4ccc(OCCN(C)C)nc34)c(F)c2)c(=O)n1-c1ccc(F)cc1 [Compound 353, N-[4-[[6-[2-(dimethylamino)ethoxy]-1,5-naphthyridin-4-yl]oxy]-3-fluorophenyl]-1-(4-fluorophenyl)-6-methyl-2-oxopyridine-3-carboxamide] | > 300 nM | < 100 nM
COc1cc2nccc(Oc3ccc(NC(=O)c4cn(C)c(CO)c(-c5ccc(F)cc5C)c4=O)cc3F)c2nc1OC [Compound 282, N-[4-[(6,7-Dimethoxy-1,5-naphthyridin-4-yl)oxy]-3-fluorophenyl]-5-(4-fluoro-2-methylphenyl)-6-(hydroxymethyl)-1-methyl-4-oxopyridine-3-carboxamide] | > 300 nM | < 100 nM

Continued, values first:

IC50 [1] | IC50 [2] | SMILES
< 100 nM | < 100 nM | Cc1ccc2nccc(Oc3ccc(NC(=O)c4c(C)cc(C)n(-c5ccc(F)cc5)c4=O)cc3F)c2n1 [Compound 297, N-[3-Fluoro-4-[(6-methyl-1,5-naphthyridin-4-yl)oxy]phenyl]-1-(4-fluorophenyl)-4,6-dimethyl-2-oxopyridine-3-carboxamide]
< 100 nM | < 100 nM | COc1cnc2c(Oc3ccc(NC(=O)c4c(C)cc(C)n(-c5ccc(F)cc5)c4=O)cc3)ccnc2c1 [Compound 289, 1-(4-Fluorophenyl)-N-[4-[(7-methoxy-1,5-naphthyridin-4-yl)oxy]phenyl]-4,6-dimethyl-2-oxopyridine-3-carboxamide]
< 100 nM | < 100 nM | COc1cc2nccc(Oc3ccc(NC(=O)c4cccn(-c5ccc(F)cc5)c4=O)cc3F)c2nc1OC [Compound 293, N-[4-[(6,7-Dimethoxy-1,5-naphthyridin-4-yl)oxy]-3-fluorophenyl]-1-(4-fluorophenyl)-2-oxopyridine-3-carboxamide]
< 100 nM | < 100 nM | CCn1cc(C(=O)Nc2ccc(Oc3ccnc4cc(OC)c(OC)nc34)c(F)c2)c(=O)c(-c2ccc(F)cc2)c1CO [Compound 271, N-[4-[(6,7-Dimethoxy-1,5-naphthyridin-4-yl)oxy]-3-fluorophenyl]-1-ethyl-5-(4-fluorophenyl)-6-(hydroxymethyl)-4-oxopyridine-3-carboxamide]
100 to 300 nM | < 100 nM | Cc1ccc(C(=O)Nc2ccc(Oc3ccnc4cc(OCc5ccccc5)cnc34)c(F)c2)c(=O)n1-c1ccc(F)cc1 [Compound 275, 1-(4-Fluorophenyl)-N-[3-fluoro-4-[(7-phenylmethoxy-1,5-naphthyridin-4-yl)oxy]phenyl]-6-methyl-2-oxopyridine-3-carboxamide]
< 100 nM | < 100 nM | COc1cc2nccc(Oc3ccc(NC(=O)c4cc(C)c(C)n(-c5ccc(F)cc5)c4=O)cc3F)c2nc1OC [Compound 370, N-[4-[(6,7-dimethoxy-1,5-naphthyridin-4-yl)oxy]-3-fluorophenyl]-1-(4-fluorophenyl)-5,6-dimethyl-2-oxopyridine-3-carboxamide]
< 100 nM | < 100 nM | COc1cnc2c(Oc3ccc(NC(=O)c4c(C)ccn(-c5ccc(F)cc5)c4=O)cc3F)ccnc2c1 [Compound 294, N-[3-Fluoro-4-[(7-methoxy-1,5-naphthyridin-4-yl)oxy]phenyl]-1-(4-fluorophenyl)-4-methyl-2-oxopyridine-3-carboxamide]
< 100 nM | < 100 nM | COc1ccc2nccc(Oc3ccc(NC(=O)c4c(C)nc(C)c(-c5ccc(F)cc5)c4O)cc3)c2n1 [Compound 340, 5-(4-fluorophenyl)-4-hydroxy-N-[4-[(6-methoxy-1,5-naphthyridin-4-yl)oxy]phenyl]-2,6-dimethylpyridine-3-carboxamide]
100 to 300 nM | < 100 nM | Cc1nc(C)c(-c2ccc(F)cc2)c(O)c1C(=O)Nc1ccc(Oc2ccnc3ccc(OCCN(C)C)nc23)c(F)c1 [Compound 354, N-[4-[[6-[2-(dimethylamino)ethoxy]-1,5-naphthyridin-4-yl]oxy]-3-fluorophenyl]-5-(4-fluorophenyl)-4-hydroxy-2,6-dimethylpyridine-3-carboxamide]
< 100 nM | < 100 nM | COc1cc2nccc(Oc3ccc(NC(=O)c4c(C)cc(C)n(-c5ccc(F)cc5C)c4=O)cc3F)c2nc1OC [Compound 298, N-[4-[(6,7-Dimethoxy-1,5-naphthyridin-4-yl)oxy]-3-fluorophenyl]-1-(4-fluoro-2-methylphenyl)-4,6-dimethyl-2-oxopyridine-3-carboxamide]
